Test results: patent publication EP4755881A1 (Wuhan Createrna Science and Technology Co., Ltd., priority 2023, dated 2025)
Where two headings read alike, the source gives them in different places.

What was measured:
[1] = biological target: hLPAR1 (human lysophosphatidic acid receptor 1, Accession No.: NM_001401.4) (Homo sapiens, UniProt Q92633); test: cell-based
Experimental: The antagonist properties of the compounds in the present disclosure were determined using the FLIPR (Fluorometric Imaging Plate Reader) method in CHO-K1 cells (Chinese Hamster Ovary cells K1, ATCC) overexpressing hLPAR1 (human lysophosphatidic acid receptor 1, Accession No.: NM_001401.4).
CHO-K1 cells stably expressing hLPAR1 were placed in a cell culture incubator at 37°C with 5% CO2 and cultured in F-12 medium containing 10% FBS (fetal bovine serum, Gibco, 10099-141), 1% penicillin-streptomycin (Gibco, 15140-122), and 0.4 mg/mL Hygromycin B (Gibco, 10687010). 18-24 hours before the FLIPR experiment, the cells were seeded into a 96-well plate at a density of 250,000 cells/mL (25,000 cells/well) and incubated overnight in the cell culture incubator. On the day of the experiment, the medium was removed, and the cells were washed with FLIPR buffer (2.5 mM probenecid (Thermo, P36400), 1.3 mM CaCl2, 3.3 mM Na2CO3, 1 mM MgSO4, 20 mM HEPES (Invitrogen, 15630080), 1× HBSS (Invitrogen, 14065056), 0.1% BSA (BioSharp, 70080030)). 75 µL of […] Fluo-4 AM fluorescent dye (Thermo, F14202) was added to each well and incubated for 1.0 hour at 37°C for dye loading. The 96-well plate was then washed once with buffer, and 50 µL of buffer containing the test compound or vehicle was added to each well, followed by incubation at room temperature for 30 min. The cell plate was then placed into the FLIPR for baseline fluorescence measurement (excitation wavelength at 485 nm, emission wavelength at 525 to 535 nm). Subsequently, 50 µL/well of agonist (final concentration 1 µM oleoyl-L-α-lysophosphatidic acid sodium salt (Sigma, L7260)) or vehicle (ultrapure water) was added, and fluorescence values were measured at 1-second intervals for 2 min. Finally, the output fluorescence counts were analyzed using GraphPad Prism 9.0 software log(inhibitor) vs. response--Variable slope (four parameters) equation to calculate IC50 values.
Table 1: Inhibitory activity data of compounds against LPAR1

[2] = Pharmacokinetic study in rats (oral gavage and tail vein injection, plasma LC-MS/MS); assay type: in vivo; details: rat; for Cmax: read-out: Cmax
Experimental: Male SPF-grade SD rats (Beijing Vital River Laboratory Animal Technology Co., Ltd.) with a body weight range of 200 to 250 g were used. After acclimatization, the rats were administered a clear solution of the compound of the present disclosure via oral gavage (Po, fasted overnight before administration with free access to water, food returned 4 hours after administration) and tail vein injection (Iv, free access to food and water throughout the administration). Blood samples were collected from the orbital venous plexus/jugular vein of rats at specified time points after administration (blood collection time points for the PO group: 0.167, 0.5, 1, 2, 4, 6, 8, and 24 h; for the IV group: 0.033, 0.167, 1, 2, 4, 6, 8, and 24 h). The concentration of compounds in plasma was detected by LC-MS/MS (AB SCIEX Qtrap4500). Data were analyzed using WinNonlin (version 5.2.1 Pharsight, Mountain View, CA) with a non-compartmental model to obtain PK parameters (including Cmax, C0, Tmax, AUClast, AUCinf, T1/2, etc.).
Table 3: Results of in vivo pharmacokinetic studies of compounds of the present disclosure in rats
The vehicle for the Po group compound was 5% DMSO + 5% ethanol + 60% PEG400 + 30% normal saline; the vehicle for the Iv group compound was 10% ethanol + 20% pure water + 70% PEG400 solution.

[3] = Table 1; FLIPR method, CHO-K1 cells overexpressing hLPAR1; read-out: LPAR1 inhibitory activity IC50

Chain of hLPAR1 (human lysophosphatidic acid receptor 1, Accession No.: NM_001401.4) (Q92633 whole entry): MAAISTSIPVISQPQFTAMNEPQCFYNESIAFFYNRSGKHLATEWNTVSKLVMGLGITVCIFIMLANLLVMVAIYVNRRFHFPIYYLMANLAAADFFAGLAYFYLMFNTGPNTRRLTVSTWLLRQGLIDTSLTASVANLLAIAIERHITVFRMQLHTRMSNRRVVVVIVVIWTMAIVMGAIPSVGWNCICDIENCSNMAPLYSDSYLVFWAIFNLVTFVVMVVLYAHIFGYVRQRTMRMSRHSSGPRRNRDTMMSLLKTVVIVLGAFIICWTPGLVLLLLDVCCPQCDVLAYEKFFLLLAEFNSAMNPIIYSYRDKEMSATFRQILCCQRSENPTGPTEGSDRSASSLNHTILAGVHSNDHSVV

Cc1nc(-c2nnn(C)c2COC(=O)N(C)CC2CCC2)ccc1C#CC1(CC(=O)O)CC1 [compound 017]
IC50 ([1]; read-out: LPAR1 inhibitory activity IC50; Table 1; FLIPR method, CHO-K1 cells overexpressing hLPAR1): 42.8 nM

CCC(F)(F)[C@@H](C)OC(=O)Nc1c(-c2ccc(C#CC3(CC(=O)O)CC3)c(Cl)n2)nnn1C [compound 209, (R)-2-(1-((2-chloro-6-(5-((((3,3-difluoropentan-2-yl)oxy)carbonyl)amino)-1-methyl-1H-1,2,3-triazol-4-yl)pyridin-3-yl)ethynyl)cyclopropyl)acetic acid]
IC50 [1, 3]: 12.7 nM

Cc1nc(-c2nnn(C)c2NC(=O)OC(C)c2cc(F)cnc2Cl)ccc1C#CC1(CC(=O)O)CC1 (stereo not drawn) [compound 023, 2-(1-((6-(5-(((1-(2-chloro-5-fluoropyridin-3-yl)ethoxy)carbonyl)amino)-1-methyl-1H-1,2,3-triazol-4-yl)-2-methylpyridin-3-yl)ethynyl)cyclopropyl)acetic acid]
IC50 [1, 3]: 45.2 nM

CCC(F)(F)[C@@H](C)OC(=O)Nc1c(-c2ccc(C#CC3(CC(=O)O)CC(OC)C3)c(C)n2)nnn1C (stereo partly drawn) [compound 279]
AUC(0-t) ([2]; SD rats, Iv, 1 mg/kg): 5000 to 10000 ng·h/mL
half-life ([2]; SD rats, Iv, 1 mg/kg): 5.82 h
Cmax ([2]; SD rats, Iv, 1 mg/kg): 5000 to 8000 ng/mL
AUC(0-t) ([2]; SD rats, Po, 1 mg/kg): 5000 to 10000 ng·h/mL
half-life ([2]; SD rats, Po, 1 mg/kg): 6.39 h
Cmax ([2]; SD rats, Po, 1 mg/kg): 800 to 5000 ng/mL

Cc1nc(-c2nnn(C)c2COC(=O)N(C)CCC(C)(F)F)ccc1C#CC1CCC1C(=O)O (racemic) [compound 359]
AUC(0-t) ([2]; in vivo, SD rats, Iv, 1 mg/kg): 1200 to 3000 ng·h/mL
Cmax ([2]; in vivo, SD rats, Iv, 1 mg/kg): 800 to 5000 ng/mL
AUC(0-t) ([2]; in vivo, SD rats, Po, 1 mg/kg): 1200 to 3000 ng·h/mL
Cmax ([2]; in vivo, SD rats, Po, 1 mg/kg): 200 to 800 ng/mL
half-life ([2]; in vivo, iv, 1 mg/kg, SD rats): 7.63 h
half-life ([2]; in vivo, po, 1 mg/kg, SD rats): 6.24 h

CCC[C@H](C)OC(=O)Nc1c(-c2ccc(C#CC3(CC(=O)O)CC3)c(C)n2)nnn1C [010-B]
AUC(0-t) ([2]; in vivo, SD rats, Iv, 1 mg/kg): 5000 to 10000 ng·h/mL
Cmax ([2]; in vivo, SD rats, Iv, 1 mg/kg): 800 to 5000 ng/mL
AUC(0-t) ([2]; in vivo, SD rats, Po, 3 mg/kg): 10000 to 20000 ng·h/mL
Cmax ([2]; in vivo, SD rats, Po, 3 mg/kg): 800 to 5000 ng/mL
half-life ([2]; in vivo, iv, 1 mg/kg, SD rats): 8.56 h
half-life ([2]; in vivo, po, 3 mg/kg, SD rats): 6.85 h

Cc1nc(-c2nnn(C)c2COC(=O)N(C)CCC(C)(F)F)ccc1C#C[C@@H]1CCC[C@H]1C(=O)O (racemic) [compound 282, trans-2-((6-(5-((((3,3-difluorobutyl)(methyl)carbamoyl)oxy)methyl)-1-methyl-1H-1,2,3-triazol-4-yl)-2-methylpyridin-3-yl)ethynyl)cyclopentane-1-carboxylic acid]
half-life ([2]; male, SD, iv, 1 mg/kg): 6.07 h
half-life ([2]; male, SD, po, 1 mg/kg): 4.58 h
AUC(0-t) ([2]; male, SD rats, Iv, 1 mg/kg): 1200 to 3000 ng·h/mL
Cmax ([2]; male, SD rats, Iv, 1 mg/kg): 800 to 5000 ng/mL
AUC(0-t) ([2]; male, SD rats, Po, 1 mg/kg): 1200 to 3000 ng·h/mL
Cmax ([2]; male, SD rats, Po, 1 mg/kg): 200 to 800 ng/mL

Cc1nc(-c2nnn(C)c2NC(=O)OC(C)C23CC(C2)C3)ccc1C#CC1(CC(=O)O)CC1 (racemic) [compound 260]
AUC(0-t) ([2]; SD rats, Iv, 1 mg/kg): 5000 to 10000 ng·h/mL
half-life ([2]; SD rats, Iv, 1 mg/kg): 8.44 h
Cmax ([2]; SD rats, Iv, 1 mg/kg): 800 to 5000 ng/mL
AUC(0-t) ([2]; SD rats, Po, 1 mg/kg): 5000 to 10000 ng·h/mL
half-life ([2]; SD rats, Po, 1 mg/kg): 9.12 h
Cmax ([2]; SD rats, Po, 1 mg/kg): 200 to 800 ng/mL

Cc1nc(-c2nnn(C)c2NC(=O)O[C@H](C)CC(C)(F)F)ccc1C#C[C@@H]1CC[C@H]1C(=O)O (mixture of isomers) [compound 213, trans-2-((6-(5-(((((R)-4,4-difluoropentan-2-yl)oxy)carbonyl)amino)-1-methyl-1H-1,2,3-triazol-4-yl)-2-methylpyridin-3-yl)ethynyl)cyclobutane-1-carboxylic acid]
half-life ([2]; male, SD, iv, 1 mg/kg): 10.4 h
half-life ([2]; male, SD, po, 1 mg/kg): 9.97 h
AUC(0-t) ([2]; male, SD rats, Iv, 1 mg/kg): 5000 to 10000 ng·h/mL
Cmax ([2]; male, SD rats, Iv, 1 mg/kg): 800 to 5000 ng/mL
AUC(0-t) ([2]; male, SD rats, Po, 1 mg/kg): 5000 to 10000 ng·h/mL
Cmax ([2]; male, SD rats, Po, 1 mg/kg): 200 to 800 ng/mL

Cc1nc(-c2nnn(C)c2NC(=O)OC(C)CC(C)(F)F)ccc1C#CC1(CC(=O)O)CC1 (racemic) [compound 311]
AUC(0-t) ([2]; SD rats, Iv, 1 mg/kg): 5000 to 10000 ng·h/mL
half-life ([2]; SD rats, Iv, 1 mg/kg): 9.33 h
Cmax ([2]; SD rats, Iv, 1 mg/kg): 800 to 5000 ng/mL
AUC(0-t) ([2]; SD rats, Po, 1 mg/kg): 3000 to 5000 ng·h/mL
half-life ([2]; SD rats, Po, 1 mg/kg): 8.49 h
Cmax ([2]; SD rats, Po, 1 mg/kg): 200 to 800 ng/mL
